Experimental data from ChEMBL document CHEMBL5346977, “Discovery of Novel d-(+)-Biotin-Conjugated Resorcinol Dibenzyl Ether-Based PD-L1 Inhibitors for Targeted Cancer Immunotherapy” (J Med Chem, 2023).
Active and inactive are the calls of the source. The calls are words filed in the database; no cut-off is given here.

Tests used:
[1] = Drug concentration in lung of C57BL/6 mouse implanted with mouse B16-F10 cells at 50 mg/kg, ip measured after 1 hrs by UPLC-MS/MS analysis; format: ADME, organism-based; details: read-out: Ct
[2] = tested on: B16-F10; test: Antitumor activity against mouse B16-F10 cells implanted in BALB/c mouse assessed as reduction in tumor weight at 50 mg/kg, ip administered once daily for 14 days relative to control; format: functional; design: scale not given: the % may be the effect or the level left; details: time 14 day
[3] = AUC (0 to infinity) in Sprague-Dawley rat at 20 mg/kg, po measured after 48 hrs by HPLC-MS/MS analysis; format: ADME, organism-based; design: dose 20 mg/kg, time 48 hrs, route po; details: in vivo
[4] = Cmax in Sprague-Dawley rat at 20 mg/kg, po measured after 48 hrs by HPLC-MS/MS analysis; format: ADME, organism-based; design: dose 20 mg/kg, time 48 hrs, route po; details: in vivo
[5] = AUC (0 to t) in Sprague-Dawley rat at 20 mg/kg, po measured after 48 hrs by HPLC-MS/MS analysis; format: ADME, organism-based; design: dose 20 mg/kg, time 48 hrs, route po; details: in vivo
[6] = target: Programmed cell death 1 ligand 1 (Mus musculus, UniProt Q9EP73); test: Binding affinity to mouse PD-L1 assessed as dissociation constant by SPR analysis
Chain of Programmed cell death 1 ligand 1 (Q9EP73 whole entry): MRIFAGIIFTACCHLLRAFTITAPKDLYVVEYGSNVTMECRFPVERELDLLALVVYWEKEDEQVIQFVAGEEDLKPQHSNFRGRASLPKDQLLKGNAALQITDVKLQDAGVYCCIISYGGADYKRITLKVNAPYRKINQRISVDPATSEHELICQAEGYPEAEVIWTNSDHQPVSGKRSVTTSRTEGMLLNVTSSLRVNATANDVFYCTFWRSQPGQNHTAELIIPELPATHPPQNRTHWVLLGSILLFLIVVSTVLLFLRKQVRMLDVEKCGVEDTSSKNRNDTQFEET

[7] = MRT (0 to infinity) in Sprague-Dawley rat at 20 mg/kg, po measured after 48 hrs by HPLC-MS/MS analysis; format: ADME, organism-based; details: in vivo
[8] = Drug concentration in spleen of C57BL/6 mouse implanted with mouse B16-F10 cells at 50 mg/kg, ip measured after 1 hrs by UPLC-MS/MS analysis; format: ADME, organism-based; details: read-out: Ct
[9] = Half-life in Sprague-Dawley rat at 20 mg/kg, po measured after 48 hrs by HPLC-MS/MS analysis; format: ADME, organism-based; details: in vivo
[10] = MRT (0 to t) in Sprague-Dawley rat at 20 mg/kg, po measured after 48 hrs by HPLC-MS/MS analysis; format: ADME, organism-based; details: in vivo
[11] = tested on: B16-F10; test: Antitumor activity against mouse B16-F10 cells implanted in allogenic BALB/c mouse assessed as increase in CXCL10 mRNA level in tumor at 50 mg/kg, ip by qPCR analysis; format: functional, organism-based
[12] = MRT (0 to infinity) in C57BL/6 mouse at 50 mg/kg, ip measured after 4 hrs by HPLC-MS/MS analysis; format: ADME, organism-based; details: in vivo
[13] = tested on: B16-F10; test: Antitumor activity against mouse B16-F10 cells implanted in allogenic BALB/c mouse assessed as increase in CXCR3 mRNA level in tumor at 50 mg/kg, ip by qPCR analysis; format: functional, organism-based

concentration at 1 h [1]: 193 ng/mL
AUC [3]: 1170 ng·h/mL
Cmax [4]: 177 ng/mL
AUCt [5]: 1160 ng·h/mL
MRT inf [7]: 7.1 h
concentration at 1 h [8]: 3470 ng/mL
half-life [9]: 2.6 h
MRT last at 48 h [10]: 6.9 h
MRT inf [12]: 9.84 h
Compound: Cc1c(COc2cc(OCc3cccc(C#N)c3)c(CN3CCCCC3C(=O)NCCNC(=O)CCCC[C@@H]3SC[C@@H]4NC(=O)N[C@@H]43)cc2Cl)cccc1-c1ccccc1 (stereo partly drawn)
Activity [2]: 66.1%
Kd [6]: 0.218 µM
Activity [11]: Active
Activity [13]: Active
